Source: US20140039044A1, “Hydroxylated Polymethoxyflavone Compositions” (WLLGEN, INC., priority 2006, published 2014)

How the values were obtained:
Assay type in all cases: cell-based, human
HT-29 cells [1] = test: Apoptotic ratio by propidium iodide flow cytometry (AC50); settings: Homo sapiens, read-out: Apoptosis-inducing AC50
Experimental: (§1) The human cancer cells (2×10^5) were cultured in 60-mm Petri dishes and incubated for 24 h. After treated with test compounds for 24 h, the cells were then harvested, washed with PBS resuspended in 200 μL of PBS, and fixed in 800 μL of iced 100% ethanol at −20° C. After being left to stand overnight, the cell pellets were collected by centrifugation, resuspended in 1 mL of hypotonic buffer (0.5% Triton X-100 in PBS and 0.5 μg/mL RNase) and incubated at 37° C. for 30 min. Next, 1 mL of propidium iodide solution (50 μg/mL) was added, and the mixture was allowed to stand on ice for 30 min. Fluorescence emitted from the propidium iodide-DNA complex was quantitated after excitation of the fluorescent dye by FACScan cytometry (Becton Dickinson, San Jose, Calif.).
The PMF compounds were assayed in vitro for cell growth inhibition and for their ability to induce apoptosis in various human cancer cells, including HL-60, AGS, COLO 205, and HT-29 cells, using methods described in Section 8.4 above. Antiproliferative (IC50) and apoptosis-inducing activity (AC50) of PMFs in the HL-60, AGS, COLO 205, and HT-29 cells are reported in Table 9, where *P<0.05, **P<0.01 and ***P<0.001 indicate statistically significant differences from the control group.

HT-29 cells [2] = test: Cell cycle distribution by flow cytometry; settings: for Cell Cycle Distribution G0/G1 / Cell Cycle Distribution G2/M / Cell Cycle Distribution S: 24 h
Experimental: as §1
(§2) Compounds A-K were evaluated in terms of their effects in arresting cell cycle progression by observing cell cycle phase distribution in cells treated with the compounds. Cells were treated with 5, 10, 25, 50, and 100 μM of one of compound A-K or DMSO (control) for 24 h and subjected to flow cytometric analysis after staining their DNA, as described above.
(§3) Similar cell cycle phase distribution studies were performed in AGS, COLO205, and HT-29 cells in response to individual PMFs, with results reported in Tables 11, 12 and 13, respectively.

HL-60 cells = test: Cell cycle distribution by flow cytometry; settings: 24 h
Experimental: as §1
(§4) The effects of the hydrolyzed PMF-enriched compositions, nobiletin and 70% PMF OPE on cell cycle distribution were studied, following the procedures described in Section 8.4. Results for cell cycle distribution in HL-60 cells, COLO205 cells and AGS cells are provided in Table 5, Table 6 and Table 7, respectively. […] In HL-60 cells, G2/M arrest predominated in cells treated with 6N PMF concentrations ≧5 μM and with 1N PMF concentrations ≧25 μM.
as §2

COLO205 cells = test: Cell cycle distribution by flow cytometry; settings: 24 h; for Cell Cycle Distribution G0/G1 / Cell Cycle Distribution G2/M / Cell Cycle Distribution S: COLO205 cells
Experimental: as §1, §4, §2, §3

AGS cells = test: Cell cycle distribution by flow cytometry; settings: 24 h
Experimental: as §1, §4, §2, §3

COc1ccc(-c2cc(=O)c3c(OC)c(OC)c(OC)c(OC)c3o2)cc1OC [Compound A, 5,6,7,8,3′,4′-hexamethoxyflavone, reference compound]
AC50 (HT-29 cells [1]): > 100 µM
Cell Cycle Distribution G0/G1 (HT-29 cells [2]; 5 μM): 63.67 ± 0.14
Cell Cycle Distribution G2/M (HT-29 cells [2]; 5 μM): 8.22 ± 0.37
Cell Cycle Distribution S (HT-29 cells [2]; 5 μM): 28.12 ± 0.52
Cell Cycle Distribution G0/G1 (HT-29 cells [2]; 10 μM): 66.57 ± 0.66
Cell Cycle Distribution G2/M (HT-29 cells [2]; 10 μM): 7.45 ± 0.28
Cell Cycle Distribution S (HT-29 cells [2]; 10 μM): 26.98 ± 0.94
Cell Cycle Distribution G0/G1 (HT-29 cells [2]; 25 μM): 69.67 ± 1.15
Cell Cycle Distribution G2/M (HT-29 cells [2]; 25 μM): 7.58 ± 0.00
Cell Cycle Distribution S (HT-29 cells [2]; 25 μM): 22.76 ± 1.15
Cell Cycle Distribution G0/G1 (HT-29 cells [2]; 50 μM): 83.26 ± 0.46
Cell Cycle Distribution G2/M (HT-29 cells [2]; 50 μM): 4.97 ± 0.67
Cell Cycle Distribution S (HT-29 cells [2]; 50 μM): 11.79 ± 1.13
Cell Cycle Distribution G0/G1 (HT-29 cells [2]; 100 μM): 89.49 ± 0.57
Cell Cycle Distribution G2/M (HT-29 cells [2]; 100 μM): 5.60 ± 0.57
Cell Cycle Distribution S (HT-29 cells [2]; 100 μM): 4.92 ± 0.00
Cell cycle arrest, in words (HT-29 cells [2]; 5-100 μM, 24 h exposure): significant accumulation of cells in G1 phase
Cell Cycle Distribution G0/G1 (HL-60 cells; 5 μM, Table 5): 45.81 ± 0.16
Cell Cycle Distribution G2/M (HL-60 cells; 5 μM, Table 5): 0.02 ± 0.01
Cell Cycle Distribution S (HL-60 cells; 5 μM, Table 5): 54.29 ± 0.01
Cell Cycle Distribution G0/G1 (HL-60 cells; 5 μM, Table 10): 41.42 ± 0.14
Cell Cycle Distribution G2/M (HL-60 cells; 5 μM, Table 10): 8.15 ± 0.49
Cell Cycle Distribution S (HL-60 cells; 5 μM, Table 10): 50.73 ± 0.42
Cell Cycle Distribution G0/G1 (HL-60 cells; 10 μM, Table 5): 53.84 ± 0.45
Cell Cycle Distribution G2/M (HL-60 cells; 10 μM, Table 5): 5.73 ± 1.50
Cell Cycle Distribution S (HL-60 cells; 10 μM, Table 5): 40.44 ± 1.06
Cell Cycle Distribution G0/G1 (HL-60 cells; 10 μM, Table 10): 50.36 ± 1.06
Cell Cycle Distribution G2/M (HL-60 cells; 10 μM, Table 10): 2.75 ± 0.57
Cell Cycle Distribution S (HL-60 cells; 10 μM, Table 10): 46.88 ± 0.28
Cell Cycle Distribution G0/G1 (HL-60 cells; 25 μM, Table 5): 61.96 ± 3.55
Cell Cycle Distribution G2/M (HL-60 cells; 25 μM, Table 5): 5.93 ± 0.49
Cell Cycle Distribution S (HL-60 cells; 25 μM, Table 5): 32.12 ± 4.04
Cell Cycle Distribution G0/G1 (HL-60 cells; 25 μM, Table 10): 66.18 ± 0.71
Cell Cycle Distribution G2/M (HL-60 cells; 25 μM, Table 10): 2.77 ± 0.85
Cell Cycle Distribution S (HL-60 cells; 25 μM, Table 10): 31.06 ± 0.99
Cell Cycle Distribution G0/G1 (HL-60 cells; 50 μM, Table 5): 62.37 ± 1.85
Cell Cycle Distribution G2/M (HL-60 cells; 50 μM, Table 5): 6.44 ± 0.08
Cell Cycle Distribution S (HL-60 cells; 50 μM, Table 5): 31.20 ± 1.76
Cell Cycle Distribution G0/G1 (HL-60 cells; 50 μM, Table 10): 64.40 ± 0.49
Cell Cycle Distribution G2/M (HL-60 cells; 50 μM, Table 10): 7.67 ± 0.57
Cell Cycle Distribution S (HL-60 cells; 50 μM, Table 10): 27.93 ± 0.35
Cell Cycle Distribution G0/G1 (HL-60 cells; 100 μM, Table 5): 65.00 ± 3.41
Cell Cycle Distribution G2/M (HL-60 cells; 100 μM, Table 5): 4.18 ± 0.33
Cell Cycle Distribution S (HL-60 cells; 100 μM, Table 5): 30.81 ± 3.08
Cell Cycle Distribution G0/G1 (HL-60 cells; 100 μM, Table 10): 62.05 ± 0.14
Cell Cycle Distribution G2/M (HL-60 cells; 100 μM, Table 10): 7.35 ± 0.14
Cell Cycle Distribution S (HL-60 cells; 100 μM, Table 10): 30.60 ± 0.35
Cell cycle arrest, in words (HL-60 cells; 25-100 μM): significant G1 arrest
Cell Cycle Distribution G0/G1 (COLO205 cells; 5 μM, Table 6): 63.83 ± 0.29
Cell Cycle Distribution G2/M (COLO205 cells; 5 μM, Table 6): 8.25 ± 0.69
Cell Cycle Distribution S (COLO205 cells; 5 μM, Table 6): 27.93 ± 0.98
Cell Cycle Distribution G0/G1 (COLO205 cells; 5 μM, Table 12): 63.63 ± 0.53
Cell Cycle Distribution G2/M (COLO205 cells; 5 μM, Table 12): 1.58 ± 0.04
Cell Cycle Distribution S (COLO205 cells; 5 μM, Table 12): 34.80 ± 0.57
Cell Cycle Distribution G0/G1 (COLO205 cells; 10 μM, Table 6): 71.13 ± 0.65
Cell Cycle Distribution G2/M (COLO205 cells; 10 μM, Table 6): 7.42 ± 0.48
Cell Cycle Distribution S (COLO205 cells; 10 μM, Table 6): 21.45 ± 0.17
Cell Cycle Distribution G0/G1 (COLO205 cells; 10 μM, Table 12): 67.25 ± 0.38
Cell Cycle Distribution G2/M (COLO205 cells; 10 μM, Table 12): 0.25 ± 0.25
Cell Cycle Distribution S (COLO205 cells; 10 μM, Table 12): 32.50 ± 0.13
Cell Cycle Distribution G0/G1 (COLO205 cells; 25 μM, Table 6): 84.21 ± 4.38
Cell Cycle Distribution G2/M (COLO205 cells; 25 μM, Table 6): 4.50 ± 0.35
Cell Cycle Distribution S (COLO205 cells; 25 μM, Table 6): 14.29 ± 0.22
Cell Cycle Distribution G0/G1 (COLO205 cells; 25 μM, Table 12): 69.94 ± 1.02
Cell Cycle Distribution G2/M (COLO205 cells; 25 μM, Table 12): 0.64 ± 0.07
Cell Cycle Distribution S (COLO205 cells; 25 μM, Table 12): 27.42 ± 1.09
Cell Cycle Distribution G0/G1 (COLO205 cells; 50 μM, Table 6): 76.82 ± 1.48
Cell Cycle Distribution G2/M (COLO205 cells; 50 μM, Table 6): 6.30 ± 0.08
Cell Cycle Distribution S (COLO205 cells; 50 μM, Table 6): 16.89 ± 1.39
Cell Cycle Distribution G0/G1 (COLO205 cells; 50 μM, Table 12): 82.40 ± 0.63
Cell Cycle Distribution G2/M (COLO205 cells; 50 μM, Table 12): 0.29 ± 0.08
Cell Cycle Distribution S (COLO205 cells; 50 μM, Table 12): 17.50 ± 0.45
Cell Cycle Distribution G0/G1 (COLO205 cells; 100 μM, Table 6): 77.12 ± 2.00
Cell Cycle Distribution G2/M (COLO205 cells; 100 μM, Table 6): 5.11 ± .46
Cell Cycle Distribution S (COLO205 cells; 100 μM, Table 6): 17.74 ± 2.40
Cell Cycle Distribution G0/G1 (COLO205 cells; 100 μM, Table 12): 65.60 ± 0.65
Cell Cycle Distribution G2/M (COLO205 cells; 100 μM, Table 12): 6.20 ± 1.25
Cell Cycle Distribution S (COLO205 cells; 100 μM, Table 12): 28.21 ± 0.60
Cell cycle arrest, in words (COLO205 cells; COLO 205 cells, compound A 50 μM, compound I 100 μM): trends in G1 arrest
Cell Cycle Distribution G0/G1 (AGS cells; 5 μM, Table 7): 58.67 ± 0.61
Cell Cycle Distribution G2/M (AGS cells; 5 μM, Table 7): 13.50 ± 1.34
Cell Cycle Distribution S (AGS cells; 5 μM, Table 7): 27.84 ± 1.94
Cell Cycle Distribution G0/G1 (AGS cells; 5 μM, Table 11): 44.7 ± 0.71
Cell Cycle Distribution G2/M (AGS cells; 5 μM, Table 11): 0.4 ± 0.57
Cell Cycle Distribution S (AGS cells; 5 μM, Table 11): 54.4 ± 0.64
Cell Cycle Distribution G0/G1 (AGS cells; 10 μM, Table 7): 59.74 ± 0.36
Cell Cycle Distribution G2/M (AGS cells; 10 μM, Table 7): 13.57 ± 1.23
Cell Cycle Distribution S (AGS cells; 10 μM, Table 7): 26.70 ± 0.87
Cell Cycle Distribution G0/G1 (AGS cells; 10 μM, Table 11): 47.1 ± 0.28
Cell Cycle Distribution G2/M (AGS cells; 10 μM, Table 11): 5.0 ± 0.64
Cell Cycle Distribution S (AGS cells; 10 μM, Table 11): 49.1 ± 0.64
Cell Cycle Distribution G0/G1 (AGS cells; 25 μM, Table 7): 59.56 ± 1.98
Cell Cycle Distribution G2/M (AGS cells; 25 μM, Table 7): 13.50 ± 0.35
Cell Cycle Distribution S (AGS cells; 25 μM, Table 7): 26.95 ± 2.33
Cell Cycle Distribution G0/G1 (AGS cells; 25 μM, Table 11): 52.9 ± 1.06
Cell Cycle Distribution G2/M (AGS cells; 25 μM, Table 11): 2.8 ± 0.35
Cell Cycle Distribution S (AGS cells; 25 μM, Table 11): 43.7 ± 0.42
Cell Cycle Distribution G0/G1 (AGS cells; 50 μM, Table 7): 56.45 ± 0.03
Cell Cycle Distribution G2/M (AGS cells; 50 μM, Table 7): 15.25 ± .33
Cell Cycle Distribution S (AGS cells; 50 μM, Table 7): 28.31 ± 0.36
Cell Cycle Distribution G0/G1 (AGS cells; 50 μM, Table 11): 53.8 ± 0.64
Cell Cycle Distribution G2/M (AGS cells; 50 μM, Table 11): 6.6 ± 0.69
Cell Cycle Distribution S (AGS cells; 50 μM, Table 11): 41.3 ± 0.92
Cell Cycle Distribution G0/G1 (AGS cells; 100 μM, Table 7): 46.13 ± 4.96
Cell Cycle Distribution G2/M (AGS cells; 100 μM, Table 7): 15.54 ± 1.10
Cell Cycle Distribution S (AGS cells; 100 μM, Table 7): 28.33 ± 3.86
Cell Cycle Distribution G0/G1 (AGS cells; 100 μM, Table 11): 66.9 ± 0.14
Cell Cycle Distribution G2/M (AGS cells; 100 μM, Table 11): 3.2 ± 0.57
Cell Cycle Distribution S (AGS cells; 100 μM, Table 11): 31.0 ± 0.64
